From patent US9309263B2, “Fused multi-cyclic sulfone compounds as inhibitors of beta-secretase and methods of use thereof” (AMGEN INC., priority 2013, dated 2016) come the findings set out here.

For assay [1], the target named is Beta Secretase enzyme (BACE) (Homo sapiens, UniProt P56817). The assay can be described thus: In vitro enzymatic BACE FRET assay. In kind it is biochemical. Conditions: average IC50; read-out: BACE1 FRET assay IC50. An outline of the steps:
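Cleavage of a quenched 50 nM FRET peptide substrate, read as fluorescence (excitation 488 nm, […]) after 1 h and Tris quench to neutrality. Buffer: 0.05 M acetate pH 4.2 with 10% DMSO and 100 uM genapol. Inhibitor dilutions were pre-incubated 1 h with 0.2 nM enzyme.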

Assay [2] concerns Aβ 40 in conditioned medium of cells stably expressing Amyloid Precursor Protein (APP). Kind of assay: In vitro BACE cell-based assay (Aβ 40 sandwich ELISA). Particulars: Homo sapiens, HEK293; HEK cells; average IC50. The method in brief:
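Aβ40 in conditioned medium measured by pAb40/biotin-6E10 sandwich ELISA with time-resolved europium fluorescence, after 24 h exposure of stable APP cells to compounds (10-point series starting 100 μM or 10 μM; 0.1% DMSO). IC50 fitted from percent of control against concentration.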
A general note: An ELISA detects its analyte on a solid surface through an enzyme-linked reagent.

Another assay deals with Cathepsin D (Cat D) (Homo sapiens, UniProt P07339). The assay can be described thus: In vitro enzymatic Cathepsin D (Cat D) FRET assay. It is filed as biochemical. Conditions: read-out: CatD IC50. The method in brief:
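FRET peptide substrate (20 nM) is cleaved by CHO-derived recombinant enzyme (9 nM) for 1 h after a 1 h inhibitor pre-incubation, at pH 3.5 in citrate buffer with 5 mM CHAPS and 10% DMSO. Tris addition ends the reaction; fluorescence measured at 500 nm excitation, 580 nm emission.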

A value given as a limit tells only on which side of the number the result lay.

Sequence of Beta Secretase enzyme (BACE) (P56817 46-501): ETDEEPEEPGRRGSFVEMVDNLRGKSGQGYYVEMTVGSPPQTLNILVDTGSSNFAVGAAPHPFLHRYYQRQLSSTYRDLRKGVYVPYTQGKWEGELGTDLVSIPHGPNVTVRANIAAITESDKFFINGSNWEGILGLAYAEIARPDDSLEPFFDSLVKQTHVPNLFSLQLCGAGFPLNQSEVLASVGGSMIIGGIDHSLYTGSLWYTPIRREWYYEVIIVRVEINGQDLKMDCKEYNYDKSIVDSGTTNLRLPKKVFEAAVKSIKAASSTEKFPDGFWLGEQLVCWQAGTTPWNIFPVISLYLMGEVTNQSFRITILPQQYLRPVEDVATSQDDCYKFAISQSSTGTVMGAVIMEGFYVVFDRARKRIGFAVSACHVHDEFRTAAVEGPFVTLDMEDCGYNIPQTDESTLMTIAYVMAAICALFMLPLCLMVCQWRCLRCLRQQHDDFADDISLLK
Sequence of Cathepsin D (Cat D) (P07339 65-412, species assumed): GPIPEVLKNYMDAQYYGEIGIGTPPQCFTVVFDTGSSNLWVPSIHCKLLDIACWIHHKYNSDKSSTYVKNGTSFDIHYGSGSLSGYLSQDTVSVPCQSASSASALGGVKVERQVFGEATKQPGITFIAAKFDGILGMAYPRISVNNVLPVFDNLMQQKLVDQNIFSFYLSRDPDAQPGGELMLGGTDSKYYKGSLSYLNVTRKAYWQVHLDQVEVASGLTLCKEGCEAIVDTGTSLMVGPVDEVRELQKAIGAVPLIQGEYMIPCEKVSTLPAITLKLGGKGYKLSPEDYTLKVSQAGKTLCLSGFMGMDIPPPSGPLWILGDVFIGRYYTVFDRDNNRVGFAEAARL

With `Cc1cc(Cl)cnc1C(=O)Nc1ccc2c(c1)[C@@]1(C)N=C(N)C(C)(C)S(=O)(=O)[C@H]1C[C@@H](C)O2` [Example 181, N-((4aS,6R,11bR)-2-amino-3,3,6,11b-tetramethyl-4,4-dioxido-4a,5,6,11b-tetrahydro-3H-[1]benzoxepino[4,5-b][1,4]thiazin-10-yl)-5-chloro-3-methyl-2-pyridinecarboxamide], the half-inhibitory concentration (IC50) in assay [1] was 0.001 µM; in assay [2], 0.0008 µM; at Cathepsin D (Cat D), 124 µM.
For `CC#CCOc1cnc2c(Nc3ccc4c(c3)C3(C)N=C(N)C(C)(C)S(=O)(=O)C3CCO4)nccc2c1` [Example 182, (4aR,11bR)-N^~10^~-(3-(2-butyn-1-yloxy)-1,7-naphthyridin-8-yl)-3,3,11b-trimethyl-4a,5,6,11b-tetrahydro-3H-[1]benzoxepino[4,5-b][1,4]thiazine-2,10-diamine 4,4-dioxide], in that order: 0.003 µM, 0.014 µM and above 400 µM.
The corresponding values for `Cc1cc(Cl)cnc1C(=O)Nc1ccc2c(c1)[C@@]1(C)N=C(N)C(C)(C)S(=O)(=O)[C@H]1C[C@H](C)O2` [Example 183, N-((4aS,6S,11bR)-2-amino-3,3,6,11b-tetramethyl-4,4-dioxido-4a,5,6,11b-tetrahydro-3H-[1]benzoxepino[4,5-b][1,4]thiazin-10-yl)-5-chloro-3-methyl-2-pyridinecarboxamide] are 0.009 µM, 0.003 µM and 44 µM.
As for `Cc1cc(Cl)cnc1C(=O)Nc1ccc2c(c1)[C@@]1(C)N=C(N)C(C)(C)S(=O)(=O)[C@H]1CC(C)(C)O2` [Example 184, N-((4aS,11bR)-2-amino-3,3,6,6,11b-pentamethyl-4,4-dioxido-4a,5,6,11b-tetrahydro-3H-[1]benzoxepino[4,5-b][1,4]thiazin-10-yl)-5-chloro-3-methyl-2-pyridinecarboxamide], the figures for the IC50 (in assay [1]; in assay [2]; at Cathepsin D (Cat D)) were 0.008 µM, 0.004 µM and 403 µM, respectively.
Turning to `COc1ccc(C(=O)Nc2ccc3c(c2)[C@@]2(C)N=C(N)C(C)(C)S(=O)(=O)[C@@H]2CCO3)nc1` [Example 185, N-((4aR,11bR)-2-amino-3,3,11b-trimethyl-4,4-dioxido-4a,5,6,11b-tetrahydro-3H-[1]benzoxepino[4,5-b][1,4]thiazin-10-yl)-5-methoxy-2-pyridinecarboxamide], the IC50 in assay [1] was determined as 0.021 µM; in assay [2], 0.013 µM; at Cathepsin D (Cat D), 516 µM.
For `CC1(C)C(N)=N[C@]2(C)c3cc(NC(=O)c4ccc(Cl)cn4)ccc3OCC[C@H]2S1(=O)=O` [Example 186, N-((4aR,11bR)-2-amino-3,3,11b-trimethyl-4,4-dioxido-4a,5,6,11b-tetrahydro-3H-[1]benzoxepino[4,5-b][1,4]thiazin-10-yl)-5-chloro-2-pyridinecarboxamide], in that order: 0.006 µM, 0.01 µM and 279 µM.
For `Cc1cc(OCC(F)(F)F)cnc1C(=O)Nc1ccc2c(c1)[C@@]1(C)N=C(N)C(C)(C)S(=O)(=O)[C@@H]1CCO2` [Example 187, N-((4aR,11bR)-2-amino-3,3,11b-trimethyl-4,4-dioxido-4a,5,6,11b-tetrahydro-3H-[1]benzoxepino[4,5-b][1,4]thiazin-10-yl)-3-methyl-5-(2,2,2-trifluoroethoxy)-2-pyridinecarboxamide], the half-maximal inhibitory concentration (IC50) came out at 0.016 µM in assay [1], 0.064 µM in assay [2] and 1240 µM on Cathepsin D (Cat D).
For `Cc1cc(C(F)(F)F)cnc1C(=O)Nc1ccc2c(c1)[C@@]1(C)N=C(N)C(C)(C)S(=O)(=O)[C@@H]1CCO2` [Example 188, N-((4aR,11bR)-2-amino-3,3,11b-trimethyl-4,4-dioxido-4a,5,6,11b-tetrahydro-3H-[1]benzoxepino[4,5-b][1,4]thiazin-10-yl)-3-methyl-5-(trifluoromethyl)-2-pyridinecarboxamide], in that order: 0.008 µM, 0.003 µM and 1550 µM.
For `Cc1cc(Cl)cnc1C(=O)Nc1ccc2c(c1)[C@@]1(C)N=C(N)C(C)(C)S(=O)(=O)[C@@H]1C[C@H](C)O2` [Example 189, N-((4aR,6S,11bR)-2-amino-3,3,6,11b-tetramethyl-4,4-dioxido-4a,5,6,11b-tetrahydro-3H-[1]benzoxepino[4,5-b][1,4]thiazin-10-yl)-5-chloro-3-methyl-2-pyridinecarboxamide], in that order: 0.003 µM, 0.001 µM and 191 µM.
The corresponding values for `Cc1cc(Cl)cnc1C(=O)Nc1ccc2c(c1)[C@@]1(C)N=C(N)C(C)(C)S(=O)(=O)[C@@H]1CC(C)(C)O2` [Example 190, N-((4aR,11bR)-2-amino-3,3,6,6,11b-pentamethyl-4,4-dioxido-4a,5,6,11b-tetrahydro-3H-[1]benzoxepino[4,5-b][1,4]thiazin-10-yl)-5-chloro-3-methyl-2-pyridinecarboxamide] are 0.005 µM, 0.002 µM and 441 µM.
As for `CC#CCOc1cnc(C(=O)Nc2ccc3c(c2)[C@@]2(C)N=C(N)C(C)(C)S(=O)(=O)[C@@H]2CCO3)cn1` [Example 191, N-((4aR,11bR)-2-amino-3,3,11b-trimethyl-4,4-dioxido-4a,5,6,11b-tetrahydro-3H-[1]benzoxepino[4,5-b][1,4]thiazin-10-yl)-5-(2-butyn-1-yloxy)-2-pyrazinecarboxamide], the IC50 was determined as 0.0007 µM in assay [1], 0.0003 µM in assay [2] and 624 µM on Cathepsin D (Cat D).
The corresponding values for `Cc1cc(C#N)cnc1C(=O)Nc1ccc2c(c1)[C@@]1(C)N=C(N)C(C)(C)S(=O)(=O)[C@@H]1CCO2` [Example 192, N-((4aR,11bR)-2-amino-3,3,11b-trimethyl-4,4-dioxido-4a,5,6,11b-tetrahydro-3H-[1]benzoxepino[4,5-b][1,4]thiazin-10-yl)-5-cyano-3-methyl-2-pyridinecarboxamide] are 0.002 µM, 0.001 µM and 434 µM.
The corresponding values for `CC1(C)C(N)=N[C@]2(C)c3cc(NC(=O)c4ccc(C#CC5CC5)cn4)ccc3OCC[C@H]2S1(=O)=O` [Example 193, N-((4aR,11bR)-2-amino-3,3,11b-trimethyl-4,4-dioxido-4a,5,6,11b-tetrahydro-3H-[1]benzoxepino[4,5-b][1,4]thiazin-10-yl)-5-(cyclopropylethynyl)-2-pyridinecarboxamide] are 0.004 µM, 0.006 µM and 995 µM.
The corresponding values for `CC1(C)C(N)=N[C@]2(C)c3cc(NC(=O)c4ccc(OC(F)F)cn4)ccc3OCC[C@H]2S1(=O)=O` [Example 194, N-((4aR,11bR)-2-amino-3,3,11b-trimethyl-4,4-dioxido-4a,5,6,11b-tetrahydro-3H-[1]benzoxepino[4,5-b][1,4]thiazin-10-yl)-5-(difluoromethoxy)-2-pyridinecarboxamide] are 0.008 µM, 0.003 µM and 652 µM.

Usually IC50 stands for the point on the concentration scale where inhibition reaches its midpoint.
